The values below come from patent publication US8735432B2, “N-(Heteroaryl)-1-heteroarylalky1-1H-indole-2-carboxamide derivatives, preparation and therapeutic use thereof” (Sanofi, priority 2005, dated 2014).

The target of data set [1] is T1, TRPV1 receptor (Rattus norvegicus, UniProt O35433).
T1 construct: The neurons of the DRG naturally express the TRPV1 receptor; endogenous in cells; host or cells: primary culture of newborn rat dorsal root ganglion neurons
Kind of data set: Inhibition of the current induced with capsaicin on rat DRGs (whole-cell patch-clamp). The format is cell-based. Conditions: DRG neuron; compound at 3 nM; inhibition of control capsaicin response (300 nM); newborn rat DRG neurons; read-out: % inhibition as a DRG patch. The procedure:
Test of Inhibition of the Current Induced with Capsaicin on Rat DRGs
Primary Culture of Rat Dorsal Root Ganglion (DRG) Cells:
The neurons of the DRG naturally express the TRPV1 receptor.
The primary cultures of newborn rat DRGs are prepared using 1-day-old rats. Briefly, after dissection, the ganglions are trypsinized and the cells dissociated by mechanical trituration. The cells are resuspended in an Eagle basal culture medium containing 10% fetal calf serum, 25 mM KCl, 2 mM glutamine, 100 μg/ml gentamicin and 50 ng/ml of NGF, and then deposited on glass slides coated with laminin (0.25×10^6 cells per slide), which are then placed in Corning 12-well dishes. The cells are incubated at 37° C. in a humidified atmosphere containing 5% CO2 and 95% air. […]
The measuring chambers (volume 800 μl) containing the cell preparation are placed on the platform of an inverted microscope (Olympus IMT2) equipped with Hoffman optics (Modulation Contrast, New York) and observed at a magnification of 400×. […] The overall currents (membrane potential set at −60 mV) are recorded with an Axopatch 1D amplifier (Axon Instruments, Foster City, Calif.), connected to a PC running the Pclamp8 software (Axon Instrument). The current plots are recorded on paper and simultaneously digitized (sampling frequency 15 to 25 Hz) and acquired on the hard drive of the PC. […]
(Patch clamp records ionic current or voltage across a cell membrane.)

Data set [2] has as its target T2, TRPV1 receptors (Mus musculus, UniProt Q704Y3).
T2 construct: from tissue; host or cells: living mouse, cornea (C fibres)
Kind of data set: Test of mouse corneal irritation (capsaicin ocular instillation). Conditions: percentage of protection, pretreatment time t = 1 h, capsaicin 2 μl of 160 μM in the eye. In kind it is in vivo. The procedure:
Test of Mouse Corneal Irritation
The irritant nature of capsaicin is readily assessed on the cornea since this organ is one of the organs most densely innervated with C fibres. In this context, from preliminary experiments, the application of a very small amount of capsaicin (2 μl at a concentration of 160 μM) to the surface of the cornea of an animal leads to a certain number of stereotypic behavioral traits associated with irritation, which are easy to detect. Among these, the following are noted: blinking of the eye, rubbing of the instilled eye with the ipsilateral front paw, rubbing of the face with both front paws, scratching of the ipsilateral face with the hind paw. […] This aspect is moreover also normal. […]
In practice, the test product is administered orally and, with a delay (pretreatment time: t) that depends on the pharmacokinetic data, the animal receives an ocular instillation of 2 μl of a 160 μM capsaicin solution prepared as indicated above. During a 2-minute observation following the instillation, the number of times the instilled eye is rubbed with the ipsilateral front paw is recorded.
For a given animal, the percentage of protection is calculated as follows: P=100−((number of scratching actions observed/mean number of scratching actions for the group treated with the solvent)×100) […]

T2 sequence (Q704Y3 whole entry): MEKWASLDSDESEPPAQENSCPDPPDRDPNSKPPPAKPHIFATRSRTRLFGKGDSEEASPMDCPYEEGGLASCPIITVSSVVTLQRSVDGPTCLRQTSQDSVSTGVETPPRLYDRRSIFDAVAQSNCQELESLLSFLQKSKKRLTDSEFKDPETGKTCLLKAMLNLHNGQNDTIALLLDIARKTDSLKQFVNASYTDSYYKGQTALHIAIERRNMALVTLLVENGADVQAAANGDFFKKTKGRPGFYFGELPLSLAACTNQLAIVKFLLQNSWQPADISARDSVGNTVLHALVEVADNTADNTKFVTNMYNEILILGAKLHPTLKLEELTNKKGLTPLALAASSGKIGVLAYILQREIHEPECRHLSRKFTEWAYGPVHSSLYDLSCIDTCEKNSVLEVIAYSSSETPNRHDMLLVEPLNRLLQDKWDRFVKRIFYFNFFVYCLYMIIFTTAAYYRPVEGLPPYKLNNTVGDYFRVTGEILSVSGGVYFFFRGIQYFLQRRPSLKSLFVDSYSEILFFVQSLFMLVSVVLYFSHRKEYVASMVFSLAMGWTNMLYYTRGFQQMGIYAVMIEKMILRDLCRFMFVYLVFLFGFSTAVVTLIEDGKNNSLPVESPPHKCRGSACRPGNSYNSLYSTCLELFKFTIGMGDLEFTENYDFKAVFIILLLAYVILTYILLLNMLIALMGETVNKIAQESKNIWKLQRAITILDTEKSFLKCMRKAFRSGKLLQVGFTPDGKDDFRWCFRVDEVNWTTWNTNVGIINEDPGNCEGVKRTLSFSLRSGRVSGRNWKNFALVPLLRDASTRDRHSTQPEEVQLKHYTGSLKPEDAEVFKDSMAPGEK
T1 sequence (O35433 whole entry): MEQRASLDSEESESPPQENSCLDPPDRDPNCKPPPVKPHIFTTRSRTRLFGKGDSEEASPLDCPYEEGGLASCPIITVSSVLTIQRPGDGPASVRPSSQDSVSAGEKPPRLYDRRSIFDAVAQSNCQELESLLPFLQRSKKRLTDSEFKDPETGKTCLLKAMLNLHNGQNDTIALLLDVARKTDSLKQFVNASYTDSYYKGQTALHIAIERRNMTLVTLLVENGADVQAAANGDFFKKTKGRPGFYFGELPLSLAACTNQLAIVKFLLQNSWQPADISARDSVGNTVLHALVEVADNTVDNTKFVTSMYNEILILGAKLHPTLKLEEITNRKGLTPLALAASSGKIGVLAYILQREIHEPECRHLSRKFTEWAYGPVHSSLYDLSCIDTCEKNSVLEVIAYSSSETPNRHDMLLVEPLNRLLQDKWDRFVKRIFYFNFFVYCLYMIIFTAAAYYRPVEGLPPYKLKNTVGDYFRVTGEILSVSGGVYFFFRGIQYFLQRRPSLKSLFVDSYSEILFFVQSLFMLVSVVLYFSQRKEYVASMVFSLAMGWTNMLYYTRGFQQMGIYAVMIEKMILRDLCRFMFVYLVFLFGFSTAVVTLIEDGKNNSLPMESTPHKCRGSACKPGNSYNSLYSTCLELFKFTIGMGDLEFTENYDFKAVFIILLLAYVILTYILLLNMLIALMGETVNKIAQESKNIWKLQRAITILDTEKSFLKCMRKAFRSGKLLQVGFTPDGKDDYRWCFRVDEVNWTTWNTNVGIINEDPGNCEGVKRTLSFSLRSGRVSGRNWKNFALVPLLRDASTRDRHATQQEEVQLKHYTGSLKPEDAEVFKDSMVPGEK

The inhibition is the change of the read-out against control, counted positive when it falls. Regarding `Cc1nc2cc(NC(=O)c3cc4cc(C(C)(C)C)ccc4n3Cc3ccncc3)ccc2n1C.Cl.Cl` [Compound 6, N-(1,2-Dimethyl-1H-benzimidazol-5-yl)-5-t-butyl-1-[(pyrid-4-yl)methyl]-1H-indole-2-carboxamide hydrochloride (1:2)], in data set [1], the inhibition at 0.003 µM worked out at 80%. Besides, in data set [2], the “% P - (t) at 1 mg/kg (po)” value is recorded as 24% - (1 h).
The melting point is the temperature of the solid-liquid transition. Molecule `Cc1cnc(Cn2c(C(=O)Nc3ccc4c(c3)nc(C)n4C)cc3cc(F)ccc32)c(C)n1` displayed a melting point of 266 to 269 °C.
Still for that read-out and setting: in the case of `Cc1cnc(C)c(Cn2c(C(=O)Nc3ccc4c(c3)nc(C)n4C)cc3cc(F)ccc32)n1` it was 269 to 275 °C; in that of `Cc1ncc(Cn2c(C(=O)Nc3ccc4c(c3)nc(C)n4C)cc3cc(F)ccc32)nc1C`, 226 to 228 °C.
Consider `Cl.Cn1ccc2cc(NC(=O)c3cc4cc(F)ccc4n3Cc3ccncc3)ccc21` [Compound 3, N-(1-Methyl-1H-indol-5-yl)-5-fluoro-1-[(pyrid-4-yl)methyl]-1H-indole-2-carboxamide hydrochloride (1:1)], for which the “% P - (t) at 1 mg/kg (po)” value in data set [2] was 44% - (1 h).
